# Values of other authors in US7871609B2, “Supplements for pain management” (priority 2007, dated 2011).
# Where a name gives a salt, the structure may show the parent alone. Read-outs that look alike come from different tables or passages of the source.
# Key:
# [1] = test system: cells in tissue culture that express PMP22 mutants; settings: cells expressing PMP22 mutants
# [2] = test system: NF-kappaB signalling in human articular chondrocytes
# forced swimming test = settings: chronic treatment 14 days, 1.25, 2.5, 5 and 10 mg/kg, p.o.
# [3] = test system: chronically stressed rats
# [4] = test system: bilateral olfactory bulbectomy (OB) model
# spasmodic dysmenorrhea = settings: 556 girls aged 12-21 yr, oral daily dose of 100 mg for 90 days
# [5] = test system: cultured cerebellar granule neurons (CGNs); settings: exposure to amprolium
# [6] = test system: osteoarthritis (OA) of the knee
# [7] = test system: homocysteine-induced atherosclerosis; settings: day 14, homocysteine thiolactone intake, supplemented versus deficient rats
structure (smiles),measurement,setting,value
"COc1cc(/C=C/C(=O)CC(=O)/C=C/c2ccc(O)c(OC)c2)ccc1O [Curcumin, diferuloylmethane]",apoptosis,[1],reduced apoptosis
same,motor performance,"Trembler-J mouse model; mouse, in vivo",improved motor performance
same,myelinated axons in sciatic nerves,"Trembler-J mouse model; mouse, in vivo",increased number and size
same,neuropathy phenotype,"Trembler-J mouse model; oral administration, dose-dependent",partially mitigates the severe neuropathy phenotype
same,percentage of apoptotic Schwann cells,Trembler-J mouse model; sciatic nerves,significantly decreases
same,IL-1beta-induced down-regulation of collagen type II and beta1-integrin receptor expression,[2],reversed
same,IL-1beta-induced stimulation of protein kinase B Akt,[2],inhibited
same,IL-1beta-induced NF-kappaB activation,"[2]; via inhibition of IkappaBalpha phosphorylation and degradation, p65 phosphorylation and nuclear translocation",suppressed
same,expression of NF-kappaB targets COX-2 and MMP-9,[2]; western blotting,down-regulation
same,immobility time,forced swimming test,reduced the immobility time
same,hippocampal neurogenesis,"[3]; 10 and 20 mg/kg, p.o., 20 days chronic stress",increased hippocampal neurogenesis
same,5-HT(1A) mRNA and BDNF protein levels in the hippocampal subfields,[3]; chronic stress,significantly prevented the stress-induced decrease
same,"OB-induced behavioral abnormalities (hyperactivity in open field, deficits in step-down passive avoidance)",[4]; chronic administration p.o.,reversed
same,"OB-induced changes of 5-HT, NA, 5-HIAA and DOPAC in the hippocampus","[4]; rat, in vivo",completely reversed
same,"OB-induced decrease in 5-HT, NA and DA levels in the frontal cortex","[4]; rat, in vivo",also reversed
"Cc1ncc(C[n+]2csc(CCO)c2C)c(N)n1 [Vitamin B1, thiamine]",completely cured,spasmodic dysmenorrhea,87%
same,no effect whatsoever,spasmodic dysmenorrhea,5%
same,relieved (pain almost nil to reduced),spasmodic dysmenorrhea,8%
same,cases of Baker's cyst cured without recurrence,tumors or masses; thiamin alone injected,13 out of 15
same,cases of submandibular gland cyst cured without recurrence,tumors or masses; thiamin alone injected,Two
CCCc1ncc(C[n+]2ccccc2C)c(N)n1 [amprolium],effect on cerebellar granule neurons,[5],caused apoptosis and the generation of reactive oxygen species
O=C(O)Cc1ccccc1Nc1c(Cl)cccc1Cl [diclofenac],mean Lequesne's Algofunctional Index (LFI) at end,[6]; after the 6-week observation period,9.4
same,mean Lequesne's Algofunctional Index (LFI) at start,[6]; before the 6-week observation period,12.5
same,tolerability judgment,[6]; majority of patients,very good or good
same,"global judgment of efficacy by physician, at least good ratings","[6]; share of patients, 6 weeks",37.2%
CN(C)CCCN1c2ccccc2CCc2ccccc21 [imipramine],hippocampal neurogenesis,"[3]; 10 mg/kg, i.p.",increased hippocampal neurogenesis
Cc1ncc(C[n+]2csc(CCO)c2C)c(N)n1 [thiamin HCl],osteosarcoma circumference before treatment,"tumors or masses; one case, pathology-confirmed",30 cm
same,osteosarcoma circumference after treatment,"tumors or masses; subcutaneous perfusion of 300 once only, within 2 days",20 cm
same,equivalent reduction in osteosarcoma volume,tumors or masses; within 2 days,50-75%
"Cc1ncc(CO)c(CO)c1O [vitamin B-6, pyridoxine]",aortic lesions,[7],not in vitamin B6-supplemented rats
